From PubChem BioAssay (NCI)
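At the GI50, growth is halved. Definition used: TGI = concentration required for complete inhibition of growth.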

Experiments:
Assay in all cases: NCI-60 cell line screen, 384-well format
[1] = system: 786-0 renal
[2] = system: NCI/ADR-RES ovarian
[3] = system: CAKI-1 renal
[4] = system: OVCAR-3 ovarian
[5] = system: MDA-MB-435 melanoma
[6] = system: MOLT-4 leukemia
[7] = system: BT-549 breast
[8] = system: SK-MEL-28 melanoma
[9] = system: SF-539 CNS
[10] = system: U251 glioblastoma
[11] = system: CCRF-CEM leukemia
[12] = system: HCT-15 colon
[13] = system: SN12C renal
[14] = system: HL-60(TB) leukemia
[15] = system: NCI-H522 lung
[16] = system: SK-MEL-5 melanoma
[17] = system: SR leukemia
[18] = system: HT29 colon
[19] = system: MALME-3M melanoma
[20] = system: K-562 leukemia
[21] = system: TK-10 renal
[22] = system: SNB-19 CNS
[23] = system: HOP-92 NSCLC
[24] = system: SF-268 CNS
[25] = system: M14 melanoma
[26] = system: HOP-62 NSCLC
[27] = system: LOX IMVI melanoma
[28] = system: SK-OV-3 ovarian
[29] = system: IGROV1 ovarian

## Cn1cc(-c2cnc3ccc4ccc(CS(=O)(=O)NCc5ccccn5)cc4c(=O)c3c2)cn1
[1]
  GI50: 37.6 µM
  TGI: > 100 µM
[2]
  GI50: 16.2 µM
  TGI: 37.4 µM
[3]
  GI50: 32.7 µM
  TGI: > 100 µM
[4]
  GI50: 14 µM
  TGI: 28.1 µM
[5]
  GI50: 3.77 µM
  TGI: 12.2 µM
[6]
  GI50: 3.23 µM
  TGI: 10.6 µM
[7]
  GI50: 14.9 µM
  TGI: 30.8 µM
[8]
  GI50: 17 µM
  TGI: 32 µM
[9]
  GI50: 15.3 µM
  TGI: 28.9 µM
[10]
  GI50: 21.2 µM
  TGI: 65.3 µM
[11]
  GI50: 7.51 µM
  TGI: 19.8 µM
[12]
  GI50: 4.28 µM
  TGI: 14.7 µM
[13]
  GI50: 19.9 µM
  TGI: 46.4 µM
[14]
  GI50: 13.2 µM
  TGI: 26 µM
[15]
  GI50: 13.1 µM
  TGI: 25.9 µM
[16]
  GI50: 8.26 µM
  TGI: 20.8 µM
[17]
  GI50: 1910 nM
  TGI: 4.24 µM
[18]
  GI50: 15.4 µM
  TGI: 32.7 µM
[19]
  GI50: 12.3 µM
  TGI: 25.4 µM
[20]
  GI50: 5.42 µM
  TGI: 17.8 µM
[21]
  GI50: 20.8 µM
  TGI: 51.5 µM
[22]
  GI50: 20.8 µM
  TGI: 53.1 µM
[23]
  GI50: 14.7 µM
  TGI: 34.1 µM
[24]
  GI50: 18.4 µM
  TGI: 38.6 µM
[25]
  GI50: 12.9 µM
  TGI: 26.1 µM
[26]
  GI50: 13 µM
  TGI: 27.8 µM
[27]
  GI50: 16.3 µM
  TGI: 30.2 µM
[28]
  GI50: 13.4 µM
  TGI: 31.3 µM
[29]
  GI50: 16.7 µM
  TGI: 33 µM
